Results published in patent US8017607B2, “N-substituted-pyrrolidines as inhibitors of MDM2-P-53 interactions” (Hoffmann-La Roche Inc., priority 2009, dated 2011).

Target: interaction between p53 and MDM2 proteins (recombinant GST-tagged MDM2, biotinylated p53 peptide) (Homo sapiens, UniProt Q00987)
Test: HTRF assay of inhibition of the p53-MDM2 interaction
Type: binding
Details: bsa: 0.02%
Protocol: The ability of the compounds to inhibit the interaction between p53 and MDM2 proteins was measured by an HTRF (homogeneous time-resolved fluorescence) assay in which recombinant GST-tagged MDM2 binds to a peptide that resembles the MDM2-interacting region of p53 (Lane et al.). Binding of GST-MDM2 protein and p53-peptide (biotinylated on its N-terminal end) is registered by the FRET (fluorescence resonance energy transfer) between Europium (Eu)-labeled anti-GST antibody and streptavidin-conjugated Allophycocyanin (APC).
[…] Add 10 uL diluted compounds (1:5 dilution in reaction buffer) to each well, mix by shaking. Add 20 uL biotinylated p53 peptide (180 nM working solution) in reaction buffer to each well and mix on shaker. Incubate at 37° C. for 1 h. Add 20 uL streptavidin-APC and Eu-anti-GST antibody mixture (6 nM Eu-anti-GST and 60 nM streptavidin-APC working solution) in TBS buffer with 0.2% BSA, shake at room temperature for 30 minutes and read using a TRF-capable plate reader at 665 and 615 nm (Victor 5, Perkin ElmerWallac). If not specified, the reagents were purchased from Sigma Chemical Co.

Chain of interaction between p53 and MDM2 proteins (recombinant GST-tagged MDM2, biotinylated p53 peptide) (Q00987 whole entry): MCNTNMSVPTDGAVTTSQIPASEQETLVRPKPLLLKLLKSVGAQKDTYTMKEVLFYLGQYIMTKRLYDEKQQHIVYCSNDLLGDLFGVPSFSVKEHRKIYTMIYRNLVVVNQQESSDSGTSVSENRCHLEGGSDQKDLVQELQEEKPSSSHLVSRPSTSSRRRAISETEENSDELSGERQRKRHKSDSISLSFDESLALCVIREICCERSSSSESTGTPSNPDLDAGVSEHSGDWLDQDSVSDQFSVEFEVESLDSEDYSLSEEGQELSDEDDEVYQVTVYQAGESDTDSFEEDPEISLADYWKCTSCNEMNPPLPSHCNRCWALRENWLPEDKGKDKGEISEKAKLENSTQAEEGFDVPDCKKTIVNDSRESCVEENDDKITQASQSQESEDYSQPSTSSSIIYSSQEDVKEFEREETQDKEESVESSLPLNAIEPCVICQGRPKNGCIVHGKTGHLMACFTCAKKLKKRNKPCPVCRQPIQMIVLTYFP

IC50 | SMILES
1730 nM | CC(C)(C)C[C@@H]1CN(C(=O)Nc2ccncc2)[C@H](c2cccc(Cl)c2F)[C@@]1(C#N)c1ccc(Cl)cc1F (racemic) [Example 48, rac-(2S,3S,4S)-2-(3-chloro-2-fluoro-phenyl)-3-(4-chloro-2-fluoro-phenyl)-3-cyano-4-(2,2-dimethyl-propyl)-pyrrolidine-1-carboxylic acid pyridin-4-ylamide]
269 nM | CC(C)(C)C[C@@H]1CN(C(=O)NCC[C@H](O)CO)[C@H](c2cccc(Cl)c2F)[C@@]1(C#N)c1ccc(Cl)cc1F (mixture of isomers) [Example 4, rac-(2S,3S,4S)-2-(3-chloro-2-fluoro-phenyl)-3-(4-chloro-2-fluoro-phenyl)-3-cyano-4-(2,2-dimethyl-propyl)-pyrrolidine-1-carboxylic acid ((S)-3,4-dihydroxy-butyl)-amide]
3230 nM | CC(C)(C)C[C@@H]1CN(C(=O)Nc2cccc(-c3nnn[nH]3)c2)[C@H](c2cccc(Cl)c2F)[C@@]1(C#N)c1ccc(Cl)cc1F (racemic) [Example 16, rac-(2S,3S,4S)-2-(3-chloro-2-fluoro-phenyl)-3-(4-chloro-2-fluoro-phenyl)-3-cyano-4-(2,2-dimethyl-propyl)-pyrrolidine-1-carboxylic acid [3-(1H-tetrazol-5-yl)-phenyl]-amide]
644 nM | CC(C)(C)C[C@@H]1CN(C(=O)c2ccc(C(=O)O)cc2)[C@H](c2cccc(Cl)c2F)[C@@]1(C#N)c1ccc(Cl)cc1F (racemic) [Example 12, rac-4-[(2S,3S,4S)-2-(3-chloro-2-fluoro-phenyl)-3-(4-chloro-2-fluoro-phenyl)-3-cyano-4-(2,2-dimethyl-propyl)-pyrrolidine-1-carbonyl]-benzoic acid]
